Laboratory results published in PMC7558026, “Exploring and applying the substrate promiscuity of a C-glycosyltransferase in the chemo-enzymatic synthesis of bioactive C-glycosides” (Nature Communications, 2020).
Several values for one entry are separate records, joined by “and”; a condition that tells them apart may be missing. Equal values may be shown once. Entries after “also recorded” stand apart in the source; their conditions may differ. Values belong to the compound of their own block, whether it stands above or below them.

Columns and labels:
SGLT2 = target: T1, SGLT2 (Homo sapiens, UniProt P31639); assay: 1-NBDG uptake in HEK293 cells stably expressing SGLT2; type: cell-based
T1 construct: Human full-length SGLT2 cDNA (NM_003041.3) was synthesized; expressed in transfected cells; host or cells: HEK293, retroviral transduction with pMSCVpuro-SGLT2, puromycin selected
T1 sequence (P31639 1-672): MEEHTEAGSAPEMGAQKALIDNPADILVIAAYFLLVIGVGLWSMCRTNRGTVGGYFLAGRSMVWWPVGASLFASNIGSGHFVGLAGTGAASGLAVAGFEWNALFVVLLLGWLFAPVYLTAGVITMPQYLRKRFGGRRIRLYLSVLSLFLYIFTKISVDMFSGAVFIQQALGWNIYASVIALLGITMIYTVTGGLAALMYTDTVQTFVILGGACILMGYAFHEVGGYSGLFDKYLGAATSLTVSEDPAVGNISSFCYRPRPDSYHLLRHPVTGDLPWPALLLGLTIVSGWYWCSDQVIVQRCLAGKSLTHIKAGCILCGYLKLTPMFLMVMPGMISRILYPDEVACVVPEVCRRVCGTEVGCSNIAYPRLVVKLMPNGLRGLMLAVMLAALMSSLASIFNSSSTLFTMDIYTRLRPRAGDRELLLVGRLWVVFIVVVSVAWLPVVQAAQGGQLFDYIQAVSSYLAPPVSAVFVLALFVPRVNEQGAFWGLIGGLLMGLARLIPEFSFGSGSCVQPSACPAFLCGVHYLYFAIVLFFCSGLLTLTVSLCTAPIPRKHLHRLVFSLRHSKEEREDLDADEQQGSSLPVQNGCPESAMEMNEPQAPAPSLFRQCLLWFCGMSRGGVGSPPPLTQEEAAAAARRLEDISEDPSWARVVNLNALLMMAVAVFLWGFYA

ICR mice = assay: Oral glucose-tolerance test (OGTT) in normal ICR mice; type: in vivo; conditions: for OD505nm (blood glucose, GOD assay) in OGTT: individual mice
Method: The hypoglycemic effect of 46a was firstly evaluated by oral glucose-tolerance test (OGTT) in mice with normal blood glucose levels. Male Institute of Cancer Research (ICR) mice weighing 24–26 g were obtained from Beijing Vital River Laboratory Animal Technology Co., Ltd (Beijing, China) and divided into three groups (n = 7–8). […] After 2 h of fasting, blood samples were collected from the tails for determination of baseline values of blood glucose (0 min). The mice were then orally administered glucose (2 g kg^‒1 BW), and blood samples were collected at 15, 30, 60, and 120 min. A glucose oxidase (GOD) assay was used for blood glucose-level measurement. The values of area under the glucose-time curve (AUC) were calculated.

alloxan-induced DM mice = assay: Hypoglycemic effect in alloxan-induced diabetic mellitus (DM) mice; type: in vivo; conditions: for OD505nm (nonfasting blood glucose): individual mice
Method: Type 1 diabetes mellitus (T1DM) mice were established by intravenous injection of alloxan tetrahydrate (68 mg kg^‒1 BW). […] Nonfasting blood glucose was kinetically monitored at 1, 2, 4, 6, 8, 24, and 48 h after treatment with 46a.

KKAy mice [1] = assay: Hypoglycemic effect in T2DM KKAy mice, blood glucose; type: in vivo; conditions: for blood glucose: individual mice
Method: (§1) To evaluate the hypoglycemic effect of 46a in type 2 diabetes mellitus (T2DM), female KKAy mice weighing 42–48 g were obtained from the Animal Center of the Institute of Laboratory Animal Sciences, Chinese Academy of Medical Sciences and Peking Union Medical College. […] Blood samples were collected at 1, 2, 4, 6, 8, 24, and 48 h after treatment. […] The glucose levels in urine 4 h and 6 h after administration were also determined using a Biosen C-Line Glucose analyzer (EKF Diagnostics, Germany).

KKAy mice [2] = assay: Urinary glucose excretion in T2DM KKAy mice; type: in vivo; conditions: for glucose in urine: 46a 100 mg kg^‒1 or dapagliflozin 5mg/kg, individual mice
Method: as §1

SGLT1 = target: T2, SGLT1 (Homo sapiens, UniProt P13866); assay: 1-NBDG uptake in HEK293 cells stably expressing SGLT1; type: cell-based; conditions: HEK293, compound at 10 μM; triplicate; read-out: SGLT1 inhibitory rates
T2 construct: The full-length SGLT1 cDNA was obtained by PCR with forward primer; expressed in transfected cells
T2 sequence (P13866 1-664): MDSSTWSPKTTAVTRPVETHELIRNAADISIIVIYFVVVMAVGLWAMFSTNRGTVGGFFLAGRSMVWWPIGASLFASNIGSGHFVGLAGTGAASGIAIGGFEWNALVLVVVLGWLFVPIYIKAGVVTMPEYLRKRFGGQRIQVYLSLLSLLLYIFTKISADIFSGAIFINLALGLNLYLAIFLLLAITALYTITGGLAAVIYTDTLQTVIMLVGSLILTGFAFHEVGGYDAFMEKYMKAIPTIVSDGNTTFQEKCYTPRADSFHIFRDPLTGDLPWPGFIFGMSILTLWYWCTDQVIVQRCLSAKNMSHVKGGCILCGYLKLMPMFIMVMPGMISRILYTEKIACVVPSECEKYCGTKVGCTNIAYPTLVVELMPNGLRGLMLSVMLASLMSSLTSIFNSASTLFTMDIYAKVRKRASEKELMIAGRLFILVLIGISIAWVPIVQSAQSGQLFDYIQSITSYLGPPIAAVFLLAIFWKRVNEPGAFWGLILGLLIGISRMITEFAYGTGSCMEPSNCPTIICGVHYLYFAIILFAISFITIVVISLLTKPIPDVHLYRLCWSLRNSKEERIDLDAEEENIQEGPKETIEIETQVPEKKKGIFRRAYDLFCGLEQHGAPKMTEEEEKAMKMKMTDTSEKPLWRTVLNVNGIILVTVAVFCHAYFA

AbCGT = AbCGT (Aloe vera, UniProt A0A7G9P699); assay: Sugar donor promiscuity of AbCGT with phloretin (17) as acceptor; type: biochemical, Aloe barbadensis; conditions: sugar donor with phloretin (17) as acceptor; Reaction-1 to -3
Method: The reaction mixture contained 0.5 mM sugar donors (1.0 mM for di-glycosylation), 0.25 mM aglycons, 50 mM Tris-HCl (pH 7.4), and 50‒100 μg of purified AbCGT in a final volume of 100 μL. Due to the instability of some acceptors in the buffer of pH 11.0, the reactions were performed under the physiological conditions (pH 7.4, 30 °C) to compare the catalytic activities of AbGT27 with different substrates under the same conditions. The reactions were performed at 30 °C for up to 12 h and terminated by the addition of 200 μL of ice-cold methanol. Subsequently, samples were centrifuged at 15,000 × g for 30 min to collect the supernatant, and aliquots were analyzed by HPLC-UV/ESIMS. HPLC analysis was performed on a Shiseido CAPCELL PAK C18 MG III column (250 mm × 4.6 mm I.D., 5 μm, Shiseido Co., Ltd., Japan) at a flow rate of 1 mL min^‒1. The mobile phase was a gradient elution of solvents A (0.1% formic acid aqueous solution) and B (methanol). The gradient programs were used for the analysis of the reactions (Supplementary Table 6). The conversion rates of the enzyme reactions were calculated from peak areas of glycosylated products and substrates as analyzed by HPLC. To facilitate inferential statistical analysis, three parallel assays were routinely performed; the means ± SD from triplicate analyses are reported here.

Chain of AbCGT (A0A7G9P699 entry or part of it): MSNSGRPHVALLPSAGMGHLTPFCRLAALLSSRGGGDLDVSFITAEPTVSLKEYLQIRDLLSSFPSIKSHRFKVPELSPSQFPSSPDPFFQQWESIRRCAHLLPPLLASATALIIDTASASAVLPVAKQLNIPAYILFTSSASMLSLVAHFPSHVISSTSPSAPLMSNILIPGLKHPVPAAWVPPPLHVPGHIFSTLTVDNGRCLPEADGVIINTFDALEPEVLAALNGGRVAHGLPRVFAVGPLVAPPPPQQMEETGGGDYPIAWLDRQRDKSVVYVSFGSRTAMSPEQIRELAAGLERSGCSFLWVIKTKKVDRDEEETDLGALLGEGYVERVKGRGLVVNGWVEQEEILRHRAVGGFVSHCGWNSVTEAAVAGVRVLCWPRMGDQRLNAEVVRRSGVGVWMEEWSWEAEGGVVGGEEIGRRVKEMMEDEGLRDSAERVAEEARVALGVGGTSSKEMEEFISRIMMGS

inhibition at 10 µM (SGLT2; HEK293, compound at 10 μM, triplicate, read-out: SGLT2 inhibitory rates): > 96% | SGLT2 inhibitory rates (SGLT2; compound at 10 μM, triplicate, 10 µM): 100% | increase of SGLT2 inhibitory activity compared to the unsubstituted glycoside 38a (SGLT2; from IC50 values, 46a vs 38a): more than 17 times | inhibition at 10 µM (SGLT1): 50.4%
SMILES: Cc1ccc(Cc2c(O)cc(O)c(C3OC(CO)C(O)C(O)C3O)c2O)cc1 (stereo not drawn) [Compound 46a]
OD505nm (blood glucose, GOD assay) in OGTT (ICR mice; 0 min, ICR mice, oral 46a 100 mg kg^‒1 or dapagliflozin 5 mg kg^‒1): 0.153 and 0.163 and 0.176 and 0.168 and 0.167 and 0.175 and 0.178 | OD505nm (blood glucose, GOD assay) in OGTT (ICR mice; 15 min after glucose 2 g kg^‒1, oral 46a 100 mg kg^‒1 or dapagliflozin 5 mg kg^‒1): 0.178 and 0.123 and 0.205 and 0.183 and 0.193 and 0.203 and 0.189 | OD505nm (blood glucose, GOD assay) in OGTT (ICR mice; 30 min after glucose, same doses): 0.183 and 0.213 and 0.193 and 0.202 and 0.218 and 0.205 and 0.211 | OD505nm (blood glucose, GOD assay) in OGTT (ICR mice; 60 min after glucose, same doses): 0.19 (2×) and 0.208 and 0.2 and 0.178 and 0.187 and 0.202 | OD505nm (blood glucose, GOD assay) in OGTT (ICR mice; 120 min after glucose, same doses): 0.169 and 0.181 and 0.185 and 0.187 and 0.178 (2×) and 0.207 | blood glucose after glucose loading / glucose tolerance (in words) (ICR mice; ICR mice, 100 mg kg^‒1 46a oral): significantly lowered the peak value of blood glucose after glucose loading; also recorded: enhanced glucose tolerance | OD505nm (nonfasting blood glucose) (alloxan-induced DM mice; 0h, alloxan-induced DM mice, single dose 46a 100 mg kg^‒1 or dapagliflozin 5 mg kg^‒1): 0.431 and 0.458 and 0.49 and 0.52 and 0.521 and 0.444 and 0.562 and 0.464 | OD505nm (nonfasting blood glucose) (alloxan-induced DM mice; 1h, same doses): 0.26 and 0.308 (2×) and 0.339 and 0.305 and 0.23 and 0.256 and 0.248 | OD505nm (nonfasting blood glucose) (alloxan-induced DM mice; 2h, same doses): 0.231 and 0.293 and 0.455 and 0.311 and 0.26 and 0.191 and 0.29 and 0.211 | OD505nm (nonfasting blood glucose) (alloxan-induced DM mice; 4h, same doses): 0.321 and 0.404 and 0.412 and 0.349 and 0.326 and 0.246 and 0.294 and 0.251 | OD505nm (nonfasting blood glucose) (alloxan-induced DM mice; 8h, same doses): 0.424 and 0.434 and 0.432 and 0.559 and 0.489 and 0.42 and 0.457 and 0.316 | OD505nm (nonfasting blood glucose) (alloxan-induced DM mice; 24h, same doses): 0.5 and 0.59 and 0.679 and 0.688 and 0.606 and 0.51 and 0.507 and 0.483 | OD505nm (nonfasting blood glucose) (alloxan-induced DM mice; 48h, same doses): 0.317 and 0.566 and 0.646 and 0.639 and 0.631 and 0.47 and 0.542 and 0.494 | hypoglycemic activity (in words) (alloxan-induced DM mice; alloxan-induced DM mice, oral single administration): exhibited obviously hypoglycemic activity | blood glucose (KKAy mice [1]; 0h, KKAy mice, single dose 46a 100 mg kg^‒1 or dapagliflozin 5 mg kg^‒1): 391.7 mg/dL and 463.4 mg/dL and 285.8 mg/dL and 498.6 mg/dL and 457.9 mg/dL and 376.2 mg/dL and 436.2 mg/dL | blood glucose (KKAy mice [1]; 1h, same doses): 205.3 mg/dL and 315 mg/dL and 262 mg/dL and 341.1 mg/dL and 283 mg/dL and 307.9 mg/dL and 329 mg/dL | blood glucose (KKAy mice [1]; 2h, same doses): 212.4 mg/dL and 285.2 mg/dL and 250.2 mg/dL and 371.1 mg/dL and 288 mg/dL and 260.7 mg/dL and 328.6 mg/dL | blood glucose (KKAy mice [1]; 4h, same doses): 205.2 mg/dL and 255.5 mg/dL and 229.1 mg/dL and 299.5 mg/dL and 368.8 mg/dL and 243.8 mg/dL and 201.2 mg/dL | blood glucose (KKAy mice [1]; 6h, same doses): 206.4 mg/dL and 242.8 mg/dL and 220.9 mg/dL and 332.5 mg/dL and 314.8 mg/dL and 301 mg/dL and 171 mg/dL | blood glucose (KKAy mice [1]; 8h, same doses): 215.9 mg/dL and 255.1 mg/dL and 195.2 mg/dL and 297 mg/dL and 255.7 mg/dL and 245.8 mg/dL and 197.4 mg/dL | blood glucose (KKAy mice [1]; 24h, same doses): 269.1 mg/dL and 338.2 mg/dL and 240.2 mg/dL and 308.3 mg/dL and 291.4 mg/dL and 330 mg/dL and 166.4 mg/dL | blood glucose (KKAy mice [1]; 48h, same doses): 250.5 mg/dL and 412.5 mg/dL and 265.3 mg/dL and 242.5 mg/dL and 425.9 mg/dL and 396 mg/dL and 189.5 mg/dL | blood glucose level (in words) (KKAy mice [1]; KKAy mice, single administration, vs control (solvent-treated) group): decreased at 1 h after 46a administration and was maintained at a lower level for 24 h; also recorded: lowered the blood glucose | glucose in urine (KKAy mice [2]; 4h): 11366 mg/dL and 12692 mg/dL and 12124 mg/dL | glucose in urine (KKAy mice [2]; 6h): 8584 mg/dL and 12278 mg/dL and 11404 mg/dL and 9012 mg/dL | urinary glucose excretion (in words) (KKAy mice [2]; single administration): elevated urinary glucose excretion; also recorded: promoted urinary glucose excretion

conversion rates, O,N,S-glycosylation (AbCGT): 0% | conversion rates, di-C-glycosylation (AbCGT): 0% | conversion rates, mono-C-glycosylation (AbCGT): 0%
SMILES: CC(=O)NC1C(OP(=O)(O)OP(=O)(O)OCC2OC(n3ccc(=O)[nH]c3=O)C(O)C2O)OC(CO)C(O)C1O (stereo not drawn) [f]
